Broadly, the melting point is the temperature of the solid-liquid transition. Usually IC50 stands for the concentration that inhibits the measured activity by half.

Here are results for six molecules from PMC6269910 (Molecules, 2013).

The structures appear in SMILES notation. Like-named read-outs stand apart in the source and are kept apart here.

Series [1] has as its system acetic acid-induced abdominal constriction. Briefly: Acetic acid-induced writhing (Koster) test. It is filed as in vivo, mice. As to the method:
Test samples, suspended in a mixture of distilled water and 0.5% sodium carboxymethyl cellulose (CMC), were given orally to the animals. The control group animals received the same experimental handling as those of the test groups, except that the drug treatment was replaced with appropriate volumes of the dosing vehicle. […] One hour after oral administration of test sample, each mouse was injected intraperitoneally with 3% (w/v) acetic acid solution (0.1 mL/10 g, bw). Starting 5 min after the acetic acid injection, the number of muscular contractions on mice were counted for a period of 10 min. A significant reduction in the number of writhings by any treatment as compared to the number of writhings in control animals was considered a positive analgesic response. The analgesic activity was expressed as a percentage change from writhing controls. ASA was used as a reference compound and administered at 200 mg/kg.
On the technique in general: Writhing tests count abdominal constrictions after an irritant is injected.

Series [2] has as its system stomach. Briefly: Gastric-ulcerogenic effect (ulcer score). The format is in vivo, mice.
For series [3], the system named is lipid peroxidation in stomach. Briefly: Lipid peroxidation in stomach (TBARS). The format is in vivo, mice.
The subject of series [4] is carrageenan-induced hind paw edema. Briefly: Carrageenan-induced hind paw edema model. It is filed as in vivo, mice. The settings on record: 25 mg/kg per os. As to the method:
Locally bred balb/c mice of both sexes (30-35 g) were purchased from the animal breeding laboratories of Inonu University ([…], Turkey). The animals were fed a standard pellet diet and water ad libitum in a temperature-controlled room. On the day before the treatments, food was withdrawn, but the animals were allowed free access of water. The allocation of animals to different groups was randomized, and the experiments were carried out under blind conditions. Mice used in the present study were cared for in accordance with the directory of the Inonu University Animal Care Unit, which applies the guidelines of the National Institutes of Health on laboratory animal welfare. Procedures involving animals and their care were conducted in conformity with international laws and policies and animal studies accepted by Inonu University Ethical Council (2011/A17). Test samples, suspended in a mixture of distilled water and 0.5% sodium carboxymethyl cellulose (CMC), were given orally to the animals. The control group animals received the same experimental handling as those of the test groups, except that the drug treatment was replaced with appropriate volumes of the dosing vehicle. […] For the preliminary activity screening, each test group was composed of four mice. […] Because of the daily changing circumstance, we used another control group for each experiment. For the determination of the effects on carrageenan-induced paw oedema, the modified method of Kasahara et al. was employed. One hour after the oral administration of either test sample or dosing vehicle, each mouse was injected with a freshly prepared (0.5 mg/25 μL) suspension of carrageenan (Sigma, St. Louis, MO, USA) in physiological saline (154 mM NaCl). The subplantar tissue of the right hind paw was the injection site for all mice. The contralateral paw (left hind paw) was injected with 25 μL saline solution as the internal control. […] The difference in footpad thickness between the right and left foot indicated the degree of inflammation for each mouse. The change in paw volume, either increase or decrease, was calculated and compared with the control group (dosing vehicle) and analyzed using statistical methods.

Series [5] deals with LPO. The experiment in a line: LPO (TBARS) level in liver, kidney, colon, brain. The format is in vivo, mice. Conditions: celecoxib 25 mg/kg oral, 72 h. The procedure:
(§1) Tissue samples were homogenized with ice-cold 150 mM KCl for the determination of LPO and glutathione (GSH) levels. The LPO levels were assayed by monitoring TBARS formation as described above.

In series [6] the test system is myeloperoxidase (MPO). Briefly: MPO activity in liver, kidney, colon, brain. It is filed as in vivo, mice. The settings on record: celecoxib 25 mg/kg oral, 72 h. The procedure:
MPO is an enzyme that is found predominantly in the azurophilic granules of polymorphonuclear leukocytes (PMN). […] MPO activity was measured in tissues in a procedure similar to that documented by […] et al.

Series [7] relates to glutathione (GSH). Briefly: GSH level in liver, kidney, colon, brain. It is filed as in vivo, mice. Conditions: celecoxib 25 mg/kg oral, 72 h. As to the method: as §1
In series [8] the test system is superoxide dismutase (SOD). The experiment in a line: SOD activity in liver, kidney, colon, brain. The settings on record: celecoxib 25 mg/kg oral, 72 h. The format is in vivo, mice. As to the method:
SOD is a major antioxidant enzyme found in cells, which protect cells from oxidative stress. SOD activity in the tissue samples was measured according to the previously described method.

Series [9] concerns the target T1, HCV NS5B RNA dependent RNA polymerase (Hepatitis C virus genotype 1b, UniProt P26663).
T1 construct: HCV NS5B RNA dependent RNA polymerase activity
Briefly: NS5B inhibition assay (primer dependent elongation, poly rA-U12). The format is biochemical. The procedure:
The compounds 1a–e and 2a–e were reconstituted in DMSO as 50 mM stocks, and serially diluted in DMSO to obtain working stocks. Wedelolactone, a known inhibitor of HCV NS5B activity, was employed as a reference compound. Preliminary screening was carried out at 100 μM to identify a wider range of compounds.
All synthesized compounds were evaluated for their effect on HCV NS5B RNA dependent RNA polymerase activity in primer dependent elongation assays as previously described. Activity of NS5B in the absence of the inhibitor but containing an equivalent amount of DMSO (control reaction) was set at 100% and that in the presence of the inhibitor was quantified relative to this control.

Where [10] appears, read: brain, series with 1a 100 mg/kg.
Setting [11] is: brain, series with 1a 200 mg/kg.
Setting [12] is: colon, series with 1a 100 mg/kg.
[13] abbreviates: colon, series with 1a 200 mg/kg.
The mark [14] stands for this setting: kidney, series with 1a 100 mg/kg.
Setting [15] is: kidney, series with 1a 200 mg/kg.
The mark [16] stands for this setting: liver, series with 1a 100 mg/kg.
Setting [17] is: liver, series with 1a 200 mg/kg.
Setting [18] is: read-out: Anti-NS5B Activity (% Inh., 100 µM).

T1 sequence (P26663 2420-3010): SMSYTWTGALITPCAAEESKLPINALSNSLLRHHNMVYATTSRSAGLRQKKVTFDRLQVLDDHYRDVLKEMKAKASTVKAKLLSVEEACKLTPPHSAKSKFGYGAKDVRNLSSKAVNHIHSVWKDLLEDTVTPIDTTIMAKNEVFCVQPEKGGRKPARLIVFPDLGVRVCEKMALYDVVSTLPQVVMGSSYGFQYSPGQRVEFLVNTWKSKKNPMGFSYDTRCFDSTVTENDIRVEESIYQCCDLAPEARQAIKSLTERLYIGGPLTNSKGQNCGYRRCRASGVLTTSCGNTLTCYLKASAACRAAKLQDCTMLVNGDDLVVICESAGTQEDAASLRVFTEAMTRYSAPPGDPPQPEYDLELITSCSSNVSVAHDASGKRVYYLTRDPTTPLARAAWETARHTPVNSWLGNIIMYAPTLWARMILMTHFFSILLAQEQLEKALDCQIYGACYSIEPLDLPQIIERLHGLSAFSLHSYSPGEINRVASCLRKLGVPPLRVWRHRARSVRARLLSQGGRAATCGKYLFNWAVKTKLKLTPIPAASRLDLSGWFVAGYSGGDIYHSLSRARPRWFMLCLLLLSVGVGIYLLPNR

In the case of `CC(=O)Oc1ccccc1C(=O)O` [ASA, acetylsalicylic acid, reference compound], in series [1] (200 mg/kg oral), the “Writhing test (% inh.)” value came to 74.7% and the “Writhing test (Mean ± SEM)” value was determined as 4.4 ± 0.9. Moreover, in [2] (ASA 200 mg/kg), the Ulcer score was 3/5. This molecule also gave a Lipid peroxidation in series [3] (ASA 200 mg/kg) of 436.1 ± 17.1 nmol TBARS/g wet weight.
With `Cc1ccc(-c2cc(C(F)(F)F)nn2-c2ccc(S(N)(=O)=O)cc2)cc1` [Celecoxib, 4-[5-(4-methylphenyl)-3-(trifluoromethyl)-1H-pyrazole-1-yl]benzene-sulfonamide, reference compound], the “Swelling in thickness ± SEM” value in [4] (90 min) is 57.0 ± 6.9 × 10^−2 mm; in [4] (180 min), 42.0 ± 3.3 × 10^−2 mm; in series [4] (270 min) it was 94.0 ± 10.4 × 10^−2 mm; in [4] (360 min) it was 103.0 ± 7.5 × 10^−2 mm. Also, in series [4] (180 min), the percent inhibitory activity is recorded as 54.3%. Also, the “Writhing test (% inh.)” value in series [1] (25 mg/kg oral) is listed as 54%. Moreover, the “Writhing test (Mean ± SEM)” value in [1] (25 mg/kg oral) was found to be 8.0 ± 1.3. Further, the Ulcer score in series [2] (celecoxib 25 mg/kg) is 0/5. Also, in [3] (celecoxib 25 mg/kg), the Lipid peroxidation was found to be 417.8 ± 23.3 nmol TBARS/g wet weight. Also, the LPO in [5] (setting [10]) turned out to be 8.18 ± 2.16 nmol/g tissue; in series [5] (setting [11]), 8.26 ± 1.01 nmol/g tissue; in series [5] (setting [12]), 7.12 ± 0.26 nmol/g tissue; in series [5] (setting [13]), 10.48 ± 2.69 nmol/g tissue; in series [5] (setting [14]), 11.12 ± 2.41 nmol/g tissue; in [5] (setting [15]), 11.30 ± 2.52 nmol/g tissue. Moreover, the values for the LPO in [5] (setting [16]) and in series [5] (setting [17]) were 9.56 ± 1.80 nmol/gtissue and 11.74 ± 2.25 nmol/gtissue, respectively. The MPO stood at 0.60 ± 0.23 U/gtissue in [6] (setting [10]); 1.48 ± 0.46 U/gtissue in series [6] (setting [11]); 0.52 ± 0.26 U/gtissue in series [6] (setting [12]); 0.46 ± 0.26 U/gtissue in series [6] (setting [13]); 3.36 ± 1.57 U/g tissue in series [6] (setting [14]); 4.75 ± 1.59 U/g tissue in series [6] (setting [15]). Further, the results for the MPO in [6] (setting [16]) and in series [6] (setting [17]) were 0.63 ± 0.30 U/gtissue and 0.19 ± 0.06 U/gtissue, respectively. The GSH in [7] (setting [10]) amounted to 22.36 ± 2.45 µmol/g tissue; in [7] (setting [11]), 20.2 ± 3.26 µmol/g tissue; in series [7] (setting [12]) it was 28.06 ± 1.45 µmol/g tissue; in [7] (setting [13]), 26.42 ± 3.46 µmol/g tissue; in [7] (setting [14]), 22.24 ± 4.17 µmol/g tissue; in series [7] (setting [15]), 21.68 ± 5.56 µmol/g tissue. The GSH in series [7] (setting [16]) came out at 20.58 ± 4.25 µmol/g tissue; in series [7] (setting [17]), 22.14 ± 1.04 µmol/g tissue. Besides, the SOD in series [8] (setting [10]) came to 24.84 ± 10.65 U/g tissue; in [8] (setting [11]), 20.41 ± 13.73 U/g tissue; in series [8] (setting [12]), 16.85 ± 5.24 U/g tissue; in [8] (setting [13]) it was 19.04 ± 5.60 U/g tissue; in series [8] (setting [14]), 17.79 ± 7.47 U/g tissue; in series [8] (setting [15]) it was 16.83 ± 9.71 U/g tissue. Moreover, the SOD in series [8] (setting [16]) came out at 22.78 ± 14.45 U/g tissue; in series [8] (setting [17]), 13.60 ± 11.98 U/g tissue. In series [9] (100 µM), the “Anti-NS5B Activity (% Inh., 100 µM)” value is 9.5%. For the same molecule, the inhibition at 100 µM in [9] (read-out: Anti-NS5B Activity (% Inh., 100 µM), 100 µM) was around 10%.
As to `Cc1ccc(-c2cc(C(F)(F)F)nn2-c2ccc(S(=O)(=O)NC(=S)Nc3ccccc3)cc2)cc1` [Compound 1b, N-(Phenylcarbamothioyl)-4-[5-(4-methylphenyl)-3-(trifluoromethyl)-1H-pyrazol-1-yl] benzene-sulfonamide], the melting point fell in the range of 251 to 252 °C. Moreover, the inhibition at 100 µM in series [9] (setting [18]) was 53.5%.
For the molecule `Cc1ccc(-c2cc(C(F)(F)F)nn2-c2ccc(S(=O)(=O)NC(=S)NCc3ccccc3)cc2)cc1` [Compound 1c, N-(Benzylcarbamothioyl)-4-[5-(4-methylphenyl)-3-(trifluoromethyl)-1H-pyrazol-1-yl] benzene-sulfonamide], the melting point is 237 to 240 °C. The IC50 in [9] (dose-response, 8–12 concentrations) stood at 36.2 ± 1.2 µM. Moreover, the inhibition at 100 µM in [9] (setting [18]) amounted to 82.3%.
Take `CCN1C(=O)CS/C1=N\S(=O)(=O)c1ccc(-n2nc(C(F)(F)F)cc2-c2ccc(C)cc2)cc1` [Compound 2a, N-(3-Ethyl-4-oxo-1,3-thiazolidin-2-yldene)-4-[5-(4-methylphenyl)-3-(trifluoromethyl)-1H-pyrazol-1-yl]benzenesulfonamide]: the melting point is 282 °C. Besides, the inhibition at 100 µM in series [9] (setting [18]) stood at 8.2%.
The corresponding values for `Cc1ccc(-c2cc(C(F)(F)F)nn2-c2ccc(S(=O)(=O)/N=C3\SCC(=O)N3c3ccc(C(F)(F)F)cc3)cc2)cc1` [Compound 2e, N-[3-(4-Trifluoromethylphenyl)-4-oxo-1,3-thiazolidin-2-yldene)-4-[5-(4-methylphenyl)-3-(trifluoro-methyl)-1H-pyrazol-1-yl]benzenesulfonamide] are 234 to 235 °C and 9.4%.
